Experimental data as given in patent US5023254A, “Aminoalkylindoles, their production, and pharmaceutical preparations based thereon” (Schering Aktiengesellschaft, priority 1988, dated 1991).

Tests used:
estrogen receptor = molecular target: T1, estrogen receptor (Bos taurus, UniProt P49884); assay: relative binding affinity (RBA) for the estrogen receptor from calf uterus, displacement of 3H-17β estradiol; settings: calf uterus; relative to 17 beta estradiol = 100
T1 construct: estrogen receptor from calf uterus; from tissue; host or cells: calf uterus
T1 sequence (P49884 1-596): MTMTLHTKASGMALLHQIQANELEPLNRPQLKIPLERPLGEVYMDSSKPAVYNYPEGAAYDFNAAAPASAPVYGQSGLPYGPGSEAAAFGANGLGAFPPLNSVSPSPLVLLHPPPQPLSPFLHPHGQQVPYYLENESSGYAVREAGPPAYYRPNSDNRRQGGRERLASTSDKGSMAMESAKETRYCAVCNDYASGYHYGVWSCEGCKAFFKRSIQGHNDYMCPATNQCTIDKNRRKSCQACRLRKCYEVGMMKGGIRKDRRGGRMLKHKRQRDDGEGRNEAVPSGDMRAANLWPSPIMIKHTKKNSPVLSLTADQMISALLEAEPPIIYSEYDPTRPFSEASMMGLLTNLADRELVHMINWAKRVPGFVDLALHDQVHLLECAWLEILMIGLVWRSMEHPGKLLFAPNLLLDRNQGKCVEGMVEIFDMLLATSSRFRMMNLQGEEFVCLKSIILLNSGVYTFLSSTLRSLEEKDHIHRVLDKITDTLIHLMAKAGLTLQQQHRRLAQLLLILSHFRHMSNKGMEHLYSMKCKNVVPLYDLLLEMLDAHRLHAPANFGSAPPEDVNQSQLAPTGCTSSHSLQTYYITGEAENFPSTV
Description: *Relative binding affinities for the estrogen receptor from calf uterus,

mouse uterus [1] = assay: Uterotrophic test on infantile mouse (estrogen activity); type: in vivo; set-up: unit not given here
Description: (§1) This test is fully described in Cancer Treatment Reviews 1984, 11, 147, and J.Med.Chem., 1984, 27, 1439.

mouse uterus [2] = assay: Antiuterotrophic test on infantile mouse (anti-estrogen activity); type: in vivo; set-up: Antiuterotrophic Test Rel. uterus wgt / Antiuterotrophic Test Action (rel. uterus wgt): unit not given here; settings: for inhibition in vivo at 0.125 mg: Mus musculus; for inhibition in vivo at 0.125 mg / inhibition in vivo at 0.005 mg / inhibition in vivo at 0.025 mg / inhibition in vivo at 0.625 mg: read-out: Antiuterotrophic Test Inhib. (%); for Antiuterotrophic Test Rel. uterus wgt / inhibition in vivo at 0.005 mg / inhibition in vivo at 0.025 mg / Antiuterotrophic Test Action (rel. uterus wgt) / inhibition in vivo at 0.625 mg: infantile mouse; for inhibition in vivo at 0.005 mg: dose 5 ug (per animal); for inhibition in vivo at 0.025 mg: dose 25 ug (per animal)
Description: as §1

[3] = tested on: human MCF-7 breast cancer cells; assay: growth of hormone-dependent human MCF-7 breast cancer cells, cell count; type: cell-based; settings: for activity at 10 µM / activity at 1 µM / activity at 0.1 µM / activity at 5 µM / activity at 0.5 µM: Homo sapiens, MCF7, read-out: Cell Count (% T/C); for activity at 10 µM: MCF-7, 1 × 10^-5 M; for activity at 1 µM: MCF-7, 1 × 10^-6 M; for activity at 0.1 µM: MCF-7, 1 × 10^-7 M; for activity at 5 µM: MCF-7, 5 × 10^-6 M; for activity at 0.5 µM: MCF-7, 5 × 10^-7 M
Description: (§2) The test protocol for the research is fully described in Eur.J. Cancer Clin. Oncol.

[4] = tested on: human MCF-7 breast cancer cells; assay: [3H] thymidine incorporation in hormone-dependent human MCF-7 breast cancer cells; type: cell-based
Description: as §2

[5] = 10^-7 M, six days after incubation

| SMILES | RBA (relative binding affinity for the estrogen receptor) (estrogen receptor) | inhibition in vivo at 0.125 mg (mouse uterus [2]) [%] | inhibition in vivo at 0.005 mg (mouse uterus [2]) [%] | inhibition in vivo at 0.025 mg (mouse uterus [2]) [%] | activity at 10 µM [3] [%] | activity at 1 µM [3] [%] | activity at 0.1 µM [3] [%] | Uterotrophic Test Action (rel. uterus wgt) (mouse uterus [1]; dose 5 ug/animal) | Uterotrophic Test Action (rel. uterus wgt) (mouse uterus [1]; dose 25 ug/animal) | Uterotrophic Test Action (rel. uterus wgt) (mouse uterus [1]; dose 625 ug/animal) | Antiuterotrophic Test Action (rel. uterus wgt) (mouse uterus [2]; dose 5 ug/animal) | Antiuterotrophic Test Action (rel. uterus wgt) (mouse uterus [2]; dose 25 ug/animal) | Antiuterotrophic Test Action (rel. uterus wgt) (mouse uterus [2]; dose 625 ug/animal) | inhibition in vivo at 0.625 mg (mouse uterus [2]; dose 625 ug/animal) [%] | activity at 5 µM [3] [%] | activity at 0.5 µM [3] [%] | further results |
| --- | --- | --- | --- | --- | --- | --- | --- | --- | --- | --- | --- | --- | --- | --- | --- | --- | --- |
| Cc1c(-c2ccc(O)cc2)n(CCCCCCN2CCOCC2)c2ccc(O)cc12 [Compound 10, 5-Hydroxy-2-(4-hydroxyphenyl)-3-methyl-1-[6-morpholino-hexyl]-indole] | 10 | 102 | 8 | 18 | 36 | 52 | 75 |  |  |  |  |  |  |  |  |  | Uterotrophic Test Rel. uterus wgt (mouse uterus [1]; dose 1 ug): 21.2 ± 3.9; Uterotrophic Test Rel. uterus wgt (mouse uterus [1]; dose 5 ug): 19.5 ± 6.9; Uterotrophic Test Rel. uterus wgt (mouse uterus [1]; dose 25 ug): 21.8 ± 11.3; Uterotrophic Test Rel. uterus wgt (mouse uterus [1]; dose 125 ug): 17.4 ± 1.7; Antiuterotrophic Test Rel. uterus wgt (mouse uterus [2]; dose 5 ug): 51.2 ± 7.5; Antiuterotrophic Test Rel. uterus wgt (mouse uterus [2]; dose 25 ug): 47.7 ± 8.4; Antiuterotrophic Test Rel. uterus wgt (mouse uterus [2]; dose 125 ug): 18.0 ± 4.8 |
| CCN(CC)CCCCCCn1c(-c2ccc(O)cc2)c(C)c2cc(O)ccc21 [Compound 11] | 14 | 50 | 11 | 8 |  |  |  | 24.8 ± 11.7 | 14.7 ± 4.3 | 36.4 ± 17.6 | 51.3 ± 4.9 | 52.1 ± 8.9 | 43.7 ± 7.4 | 37 |  |  |  |
| Cc1c(-c2ccc(O)cc2)n(CCCCCCNCc2ccccc2)c2ccc(O)cc12 [Compound 12, 1-(6-Benzylaminohexyl)-5-hydroxy-2-(4-hydroxyphenyl)-3-methyl-indole] | 15 | 51 | 25 | 43 | 41 | 46 | 47 | 17.8 ± 4.6 | 23.6 ± 2.5 |  | 53.2 ± 9.0 | 44.6 ± 7.1 | 41.8 ± 7.4 | 49 |  |  |  |
| Cc1c(-c2ccc(O)cc2)n(CCCCCC(=O)N2CCCC2)c2ccc(O)cc12 [Compound 16, 5-Hydroxy-2-(4-hydroxyphenyl)-3-methyl-1-(6-pyrrolidinocarbonylpentyl)-indole] | 7 | 53 | 10 | 29 | 42.1 ± 4 | 47.1 ± 3.7 | 57.2 ± 4.4 | 18.2 ± 2.3 | 16.5 ± 2.4 | 35.3 ± 10.7 | 47.5 ± 10.9 | 42.0 ± 7.0 | 40.7 ± 3.9 | 44 | 44 ± 3.6 | 48.2 ± 5.4 |  |
| Cc1c(-c2ccc(O)cc2)n(CCCCCC(=O)N2CCCCC2)c2ccc(O)cc12 [Compound 17, 5-Hydroxy-2-(4-hydroxyphenyl)-3-methyl-1-(6-piperidinocarbonylpentyl)-indole] | 19 | 59 | 6 | 22 | 86.5 ± 8.3 | 96 ± 7.7 | 89 ± 10.8 | 17.7 ± 3.2 | 16.3 ± 3.0 |  | 48.7 ± 9.1 | 42.9 ± 4.7 |  |  | 99.6 ± 7.6 | 95.5 ± 10.2 | Uterotrophic Test Action (rel. uterus wgt) (mouse uterus [1]; dose 1 ug/animal): 23.8 ± 2.8 |
| Cc1c(-c2ccc(O)cc2)n(CCCCCC(=O)N2CCOCC2)c2ccc(O)cc12 [Compound 18, 5-Hydroxy-2-(4-hydroxyphenyl)-3-methyl-1-(6-morpholinocarbonylpentyl)-indole] | 26 | 41 |  |  | 33.3 ± 2.8 | 56.4 ± 5.2 | 57.5 ± 6.8 | 22.0 ± 5.6 | 21.2 ± 4.6 |  | 53.5 ± 8.7 | 52.8 ± 7.4 |  |  | 42.4 ± 3.7 | 58.1 ± 6.7 | Uterotrophic Test Action (rel. uterus wgt) (mouse uterus [1]; dose 1 ug/animal): 20.2 ± 3.4 |
| CCN(CC)C(=O)CCCCCn1c(-c2ccc(O)cc2)c(C)c2cc(O)ccc21 [Compound 19, 1-(6-Diethylcarbamoylpentyl)-5-hydroxy-2-(4-hydroxyphenyl)-3-methylindole] | 15 | 34 | 13 | 13 | 44.9 ± 3.7 | 61.4 ± 4.4 | 59.7 ± 6.1 | 18.4 ± 3.2 | 17.9 ± 2.0 | 32.7 ± 6.5 | 50.9 ± 8.2 | 50.9 ± 4.8 | 35.3 ± 6.1 | 66 | 56.2 ± 4.5 | 60.1 ± 3.8 |  |
| Cc1c(-c2ccc(O)cc2)n(CCCCCC(=O)NCc2ccccc2)c2ccc(O)cc12 [Compound 20, 1-(6-Benzylcarbamoylpentyl)-5-hydroxy-2-(4-hydroxyphenyl)-3-methylindole] | 12 |  |  | 12 | 26.8 ± 4.2 | 46.8 ± 4.2 | 58.3 ± 4.9 | 16.5 ± 3.6 | 20.9 ± 6.5 | 19.9 ± 4.1 | 50.7 ± 5.0 | 46.9 ± 7.7 | 59.5 ± 12.4 | -23 | 36.6 ± 2.5 | 47.9 ± 3 |  |
| CC/C(=C(\c1ccccc1)c1ccc(OCCN(C)C)cc1)c1ccccc1 [Tamoxifen, reference compound] |  |  |  |  |  | 27 | 77 |  |  |  |  |  |  |  |  |  | thymidine incorporation (in words) [4, 5]: no significant effect; activity at 1 µM ([4]; Homo sapiens, MCF7, MCF-7, 1 × 10^-6 M, read-out: [3H] Thymidine incorporation (% T/C)): 27%; activity at 0.1 µM ([4]; Homo sapiens, MCF7, MCF-7, 1 × 10^-7 M, read-out: [3H] Thymidine incorporation (% T/C)): 71%; inhibition of MCF-7 cell growth / cell count (in words) [3, 5]: no significant effect |
